Assay results: US6608071B2, “Isoquinoline derivatives with angiogenesis inhibiting activity” (Novartis AG, priority 1998, dated 2003)

Tests used:
[1] = target: T1, Flt-1 VEGF receptor tyrosine kinase (Homo sapiens, UniProt P17948); assay: Test for activity against Flt-1 VEGF receptor tyrosine kinase activity; type: biochemical; details: kinase domain of Flt-1, poly(Glu,Tyr) 4:1, 8 μM [33P]-ATP, 15 minutes at room temperature
T1 construct: 10 ng of the kinase domain of Flt-1
T1 sequence (P17948 827-1158 limits assumed): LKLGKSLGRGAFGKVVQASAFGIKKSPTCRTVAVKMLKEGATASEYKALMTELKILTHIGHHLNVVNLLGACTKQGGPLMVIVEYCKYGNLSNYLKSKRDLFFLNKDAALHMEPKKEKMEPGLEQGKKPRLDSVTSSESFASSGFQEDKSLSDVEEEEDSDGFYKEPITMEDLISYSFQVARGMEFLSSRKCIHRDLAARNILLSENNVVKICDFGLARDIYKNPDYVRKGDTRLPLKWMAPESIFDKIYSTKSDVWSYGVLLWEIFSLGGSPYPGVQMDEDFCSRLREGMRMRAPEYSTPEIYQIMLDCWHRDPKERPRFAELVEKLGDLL
Protocol: Test for activity against VEGF receptor tyrosine kinase activity: The test is carried out using Flt-1 VEGF receptor tyrosine kinase. In detail, the procedure is as follows: 30 μl of kinase solution (10 ng of the kinase domain of Flt-1, Shibuya et al., Oncogene 5, 519-524 (1990)) in 20 mM Tris-HCl pH 7.6, 3 mM manganese dichloride (MnCl2), 3 mM magnesium chloride (MgCl2) and 3 μg/ml of poly(Glu,Tyr) 4:1 (Sigma, Buchs, Switzerland), 8 μM [^33P]-ATP (0.2 μCi/batch), 1% dimethyl sulfoxide and from 0 to 50 μM of the test compound are incubated together for 15 minutes at room temperature. The reaction is then terminated by addition of 10 μl of 0.25M ethylenediamine tetraacetate (EDTA) pH 7. An aliquot of 20 μl is connected to a vacuum using a multichannel dispenser (LAB SYSTEMS, USA) on a PVDF (=polyvinyl difluoride) Immobilon P membrane (Millipore, USA), which is incorporated in a Millipore Microtiter filter manifold. When the liquid has been removed completely, the membrane is incubated 4 times in succession, in each case for 10 minutes, with shaking, in a washing bath containing 0.5% phosphoric acid (H3PO4), and is then mounted in a Hewlett Packard TopCount Manifold and, after addition of 10 μl of Microscint® (β-scintillation counter fluid; Packard, USA), the radioactivity is, measured. IC50 values are determined by linear regression analysis of the percentage values for the inhibition of each compound at three concentrations (generally 0.01, 0.1 and 1 μM). The inhibition values (IC50 with half-maximum inhibition as compared with a control without inhibitor of formula I) found are especially in the range of from 10 nmol/liter to 100 μmol/liter, more especially from 20 to 2000 nmol/liter.
The test is carried out using Fit-1 VEGF receptor tyrosine kinase, as described above. The IC50 values obtained are shown below, insofar as they were calculated accurately: […]

Row | melting point | IC50 [1] | SMILES
1 | 141 to 142 °C |  | Clc1cccc(CNc2ncc(Cc3ccncc3)c3ccccc23)c1 [Example 132, 1-(3-Chlorobenzylamino)-4-[(pyridin-4-yl)-methyl]-isoquinoline]
2 |  | > 1000 nM | FC(F)(F)c1cc(Nc2ncc(Cc3ccncc3)c3ccccc23)ccc1Cl [Example 4]
3 | 156 to 158 °C | 802 nM | Cc1cc(C)cc(Nc2ncc(Cc3ccncc3)c3ccccc23)c1 [Example 1, 1-(3,5-Dimethylanilino)-4-[(pyridin-4-yl)-methyl]-isoquinoline]
4 |  | 344 nM | Cc1cccc(Nc2ncc(Cc3ccncc3)c3ccccc23)c1 [Example 5]
5 |  | > 1000 nM | FC(F)(F)c1cc(Br)cc(Nc2ncc(Cc3ccncc3)c3ccccc23)c1 [Example 3]
6 |  | 346 nM | Clc1ccc(Nc2ncc(Cc3ccncc3)c3ccccc23)cc1 [Example 2]
